Source: patent US11691974B2, “3,9-diazaspiro[5,5]undecane compound as FLT3 and AXL inhibitors” (MEDSHINE DISCOVERY INC., priority 2018, dated 2023)

How the values were obtained:
[1] = tested on: human biphenotypic B bone marrow mononuclear leukemia cell MV4-11 subcutaneous xenograft tumor; assay: Inhibition of MV4-11 subcutaneous xenograft tumor in vivo; parameters: species or system nude mice; settings: for Average tumor volume Day 25 / Average tumor volume Day 35: then drug withdrawal; for Average tumor volume Day 0: baseline at start of dosing
Procedure: In this assay, the anti-tumor effect of the compounds was evaluated using a nude mice model of subcutaneous xenograft tumor of human biphenotypic B bone marrow mononuclear leukemia cell MV4-11.
Human biphenotypic B bone marrow mononuclear leukemia cell MV4-11 was cultured in vitro in suspension with a RPMI1640 medium supplemented with 10% fetal bovine serum, 100 U/mL penicillin and 100 μg/mL streptomycin in a 5% CO2 cell incubator at 37° C. Routine passaging was performed twice a week. Cells in the logarithmic growth phase were collected, counted and then used for inoculation.
10×10^6 MV4-11 cells were inoculated subcutaneously on the back of the right neck of each mouse, wherein the inoculation volume was 0.2 mL, and the cell suspension was PBS plus matrigel (volume ratio 1:1). The assay of efficacy in vivo was performed on the 13th day after the cell inoculation, at which time the average tumor volume reached 181 mm^3. The mice were randomly divided into groups with 6 mice in each group, and administration to the mice started.
The diameter of the tumor was measured with vernier calipers twice a week. The formula for calculating the tumor volume is: V=0.5a×b^2, where a and b represent the long and short diameters of the tumor, respectively.
After 14 days of administration, the administration was stopped, and the rebound of the tumor was observed.

MV-4-11 cells = assay: Assay of inhibiting proliferation of MV-4-11 in vitro (CellTiter-Glo); assay type: cell-based; settings: Homo sapiens, MV4-11, 72 h, 3 days
Procedure: IMDM medium, fetal bovine serum, and penicillin/streptomycin antibiotics were purchased from Promega (Madison, Wis.). The MV-4-11 cell line was purchased from the Cell Bank of the Chinese Academy of Sciences. Envision Multi-Label Analyzer (PerkinElmer).
MV-4-11 cells were seeded in a white 96-well plate with 80 μL of cell suspension per well containing 10,000 MV-4-11 cells. The cell plate was cultured overnight in a carbon dioxide incubator.
The compounds to be tested were 5-fold serially diluted with a pipette to obtain eight concentrations, i.e., from 2 mmol/L to 26 nmol/L. The assay was carried out in duplicate. 78 μL of medium was added to the intermediate plate, and then 2 μL per well of the serially diluted compounds were transferred to the intermediate plate according to the corresponding position. After mixing, an amount of 20 μL per well was transferred to the cell plate. The cell plate was cultured in a carbon dioxide incubator for 3 days.
25 μL per well of Promega CellTiter-Glo reagent was added to the cell plate and incubated at room temperature for 10 minutes to stabilize the luminescence signal. A PerkinElmer Envision multi-label analyzer was used for reading.
The original data was converted into an inhibition rate, and the IC50 value can be obtained by four-parameter curve fitting.

[2] = tested on: human acute myeloma MOLM-13 cell line subcutaneous xenograft; assay: Inhibition of Molm-13 subcutaneous xenograft tumor in vivo; parameters: species or system NOD/SCID female mice; settings: for Average tumor volume Day 0: baseline
Procedure: The purpose of this assay is to evaluate the pharmacodynamics of the compounds in the NOD/SCID female mice model of human acute myeloma MOLM-13 cell line subcutaneous xenograft.
MOLM-13 cells were cultured in RPMI-1640 medium containing 10% fetal bovine serum. The MOLM-13 cells were collected in the exponential growth phase, and resuspended in PBS to a suitable concentration for subcutaneous tumor inoculation in nude mice.
The assay mice were inoculated with 5×10^6 MOLM-13 cells resuspended in 0.1 ml of PBS (0.1 ml per mouse) subcutaneously on the right back. Tumor growth was regularly observed. When the tumor grew to an average volume of 98 mm^3, the mice were randomly divided into groups and administered according to tumor size and body weight of the mice.
After the start of administration, the body weight and tumor size of the mice were measured three times a week. The formula for calculating the tumor volume is: tumor volume (mm^3)=½×(a×b^2) (where a represents the long diameter and b represents the short diameter).

[3] = 5 mg/kg oral once a day for 14 days
[4] = 20 mg/kg oral once a day for 14 days

IC50 (MV-4-11 cells) [nM] | Compound | % Inhibition rate on day 14 ([1]; 5 mg/kg oral once a day) [%] | Average tumor volume Day 14 ([1]; 5 mg/kg oral once a day) [cubic millimeter] | Average tumor volume Day 25 [1, 3] [cubic millimeter] | Average tumor volume Day 35 [1, 3] [cubic millimeter] | Average tumor volume Day 0 ([1]; 5 mg/kg oral once a day group) [cubic millimeter] | Average tumor volume Day 11 ([2]; 15 mg/kg oral once a day) [cubic millimeter] | Average tumor volume Day 15 ([2]; 15 mg/kg oral once a day) [cubic millimeter] | Average tumor volume Day 11 ([2]; 50 mg/kg oral once a day) [cubic millimeter] | Average tumor volume Day 15 ([2]; 50 mg/kg oral once a day) [cubic millimeter] | Average tumor volume Day 0 ([2]; 15 mg/kg oral once a day group) [cubic millimeter] | Average tumor volume Day 0 ([2]; 50 mg/kg oral once a day group) [cubic millimeter] | % Inhibition rate on day 14 ([1]; 20 mg/kg oral once a day) [%] | Average tumor volume Day 14 ([1]; 20 mg/kg oral once a day) [cubic millimeter] | Average tumor volume Day 25 [1, 4] [cubic millimeter] | Average tumor volume Day 35 [1, 4] [cubic millimeter] | Average tumor volume Day 0 ([1]; 20 mg/kg oral once a day group) [cubic millimeter]
4.65 | CCc1nc(C(N)=O)c(Nc2ccc(N3CCC(N4CCN(C)CC4)CC3)c(OC)c2)nc1NC1CCOCC1 [Compound B] | 118 | 41 | 320 | 1279 | 181 |  |  |  |  |  |  |  |  |  |  | 
 | CCc1nc(C(N)=O)c(Nc2ccc(N3CCC4(CCN(C)CC4)CC3)c(C)c2)nc1NC1CCOCC1 [Compound of formula (I)] |  |  |  |  |  | 156.85 | 223.09 | 53.08 | 0 | 98.34 | 98.05 |  |  |  |  | 
5.4 | CCc1nc(C(N)=O)c(Nc2ccc(N3CCC4(CCN(C)CC4)CC3)c(OC)c2)nc1NC1CCOCC1 [Compound A] |  |  |  |  |  |  |  |  |  |  |  | 118 | 39 | 258 | 988 | 181
